Assay [1] concerns the target Epithelial Cell Kinase (ECK) (Homo sapiens, UniProt P29317). In words: Inhibition of Epithelial Cell Kinase (ECK) tyrosine kinase activity. It counts as biochemical. As to the method: In this standard pharmacological test procedure, a biotinylated peptide substrate is first immobilized on neutravidin-coated microtiter plates. The test drug, the Epithelial Cell Kinase (ECK), Mg^++, sodium vanadate (a protein tyrosine phosphatase inhibitor), and an appropriate buffer to maintain pH (7.2) are then added to the immobilized substrate-containing microtiter wells. ATP is then added to initiate phosphorylation. After incubation, the assay plates are washed with a suitable buffer leaving behind phosphorylated peptide which is exposed to horse radish peroxidase (HRP)-conjugated anti-phosphotyrosine monoclonal antibody. The antibody-treated plates are washed again and the HRP activity in individual wells is quantified as a reflection of degree of substrate phosphorylation. […] Multiple entries for a given compound indication it was tested multiple times.

For the next assay, the target named is Mek and Erk (Homo sapiens, UniProt P28482+Q02750). In words: Mitogen Activated Protein Kinase (MAPK) coupled assay (Mek-Erk). Format: biochemical. As to the method: Mitogen Activated Protein Kinase (MAPK) Assay
Sequence of Mek and Erk (Q02750 whole entry): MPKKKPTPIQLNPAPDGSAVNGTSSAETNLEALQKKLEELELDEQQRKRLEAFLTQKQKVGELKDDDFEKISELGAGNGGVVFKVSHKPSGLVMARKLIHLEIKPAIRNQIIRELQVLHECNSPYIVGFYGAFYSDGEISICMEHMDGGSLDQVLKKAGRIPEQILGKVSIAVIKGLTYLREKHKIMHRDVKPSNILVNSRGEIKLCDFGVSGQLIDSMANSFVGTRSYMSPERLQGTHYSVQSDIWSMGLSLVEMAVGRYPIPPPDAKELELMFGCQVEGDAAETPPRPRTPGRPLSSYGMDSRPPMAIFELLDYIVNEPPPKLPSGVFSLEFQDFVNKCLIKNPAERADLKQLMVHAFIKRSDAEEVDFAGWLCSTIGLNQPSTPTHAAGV
Sequence of Mek and Erk (P28482 2-360): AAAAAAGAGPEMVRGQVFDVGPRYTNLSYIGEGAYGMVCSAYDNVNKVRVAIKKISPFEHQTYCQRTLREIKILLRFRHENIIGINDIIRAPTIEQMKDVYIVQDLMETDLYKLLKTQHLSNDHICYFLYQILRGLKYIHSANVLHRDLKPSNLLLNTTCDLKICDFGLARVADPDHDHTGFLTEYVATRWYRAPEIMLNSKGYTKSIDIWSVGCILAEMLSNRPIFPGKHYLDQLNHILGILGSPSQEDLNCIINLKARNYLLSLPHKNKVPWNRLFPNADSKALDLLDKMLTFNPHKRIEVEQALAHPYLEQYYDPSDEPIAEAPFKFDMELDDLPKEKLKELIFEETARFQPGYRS
To evaluate inhibitors of the MAP (mitogen activated protein) kinase a two component coupled standard pharmacological test procedure, which measures phosphorylation of a serine/threonine residue in an appropriate sequence in the substrate in the presence and absence of a putative inhibitor, was used. Recombinant human MEK 1 (MAPKK) was first used to activate recombinant human ERK2 (MAPK) and the activated MAPK (ERK) was incubated with substrate (MBP peptide or MYC peptide) in the presence of ATP, Mg^+2 and radiolabeled ^33P ATP. The phosphorylated peptide was captured on a P 81 phosphocellulose filter (paper filter or embedded in microtiter plate) washed and counted by scintillation methods.
The peptide substrates used in the assay are MBP, peptide substrate ([…]), or synthetic Myc substrate, ([…]•5 TFA. The recombinant enzymes used were prepared as GST fusion proteins of human ERK 2 and human MEK 1. Inhibitor samples were prepared as 10X stocks in 10% DMSO and an appropriate aliquot was used to deliver either 10 ug/ml for a single point screening dose or 100, 10, 1, and 0.1 uM final concentration for a dose response curve. Final DMSO concentrations were less than or equal to 1%.
The reaction was run as follows in 50 mM Tris kinase buffer, pH 7.4 in a reaction volume of 50 ul. The appropriate volume of kinase buffer and inhibitor sample was added to the tube. Appropriate dilution of enzyme was delivered to give 2-5 ug recombinant MAPK (Erk ) per tube. The inhibitor was incubated with MAPK (Erk) for 30 min at 0 deg. C. Recombinant Mek (MAPKK) ( 0.5-2.5 ug) or fully activated Mek (0.05-0.1 units) was added to activate the Erk and incubated for 30 min at 30° C. Then substrate and gamma ^33P ATP was were added to give a final concentration of 0.5- 1 mM MBPP or 250-500 uM Myc; 0.2-0.5 uCi gamma P 33 ATP/tube; 50 µM ATP final concentration. Samples were incubated at 30°C for 30 minutes and the reaction was stopped by adding 25 µl of ice cold 10 %TCA .After samples were chilled on ice for 30 min, 20 µl of sample was transferred onto P 81 phosphocellulose filter paper or appropriate MTP with embedded P 81 filter. Filter papers or MTP were washed 2 times with a large volume of 1% acetic acid, then 2 times with water. The filters or MTP were briefly air dried before addition of scintillant and samples were counted in the appropriate scintillation counter set up for reading ^33P isotope. Samples included a positive control (activated enzyme plus substrate); a no enzyme control; a no substrate control; samples with different concentrations of putative inhibitor; and samples with reference inhibitors (other active compounds or non-specific inhibitors such as staurosporine or K252 B).
The raw data was captured as cpm. Sample replicates were averaged and corrected for background count. Mean cpm data was tabulated by group and % inhibition by a test compound was calculated as (corrected cpm control- corrected. cpm sample/control) X 100 = % inhibition. […] The results obtained for representative compounds of this invention are listed in TABLE 2 where there may be separate entries for the same compound; this is an indication that the compound was evaluated more than one time.

The target of a further assay is erbB2 (Homo sapiens, UniProt P04626). In words: erbB2 inhibition at a single concentration. It counts as biochemical. The following applies: read-out: erbB2 % Inh 2 µg/mL.
Sequence of erbB2 (P04626 23-1255): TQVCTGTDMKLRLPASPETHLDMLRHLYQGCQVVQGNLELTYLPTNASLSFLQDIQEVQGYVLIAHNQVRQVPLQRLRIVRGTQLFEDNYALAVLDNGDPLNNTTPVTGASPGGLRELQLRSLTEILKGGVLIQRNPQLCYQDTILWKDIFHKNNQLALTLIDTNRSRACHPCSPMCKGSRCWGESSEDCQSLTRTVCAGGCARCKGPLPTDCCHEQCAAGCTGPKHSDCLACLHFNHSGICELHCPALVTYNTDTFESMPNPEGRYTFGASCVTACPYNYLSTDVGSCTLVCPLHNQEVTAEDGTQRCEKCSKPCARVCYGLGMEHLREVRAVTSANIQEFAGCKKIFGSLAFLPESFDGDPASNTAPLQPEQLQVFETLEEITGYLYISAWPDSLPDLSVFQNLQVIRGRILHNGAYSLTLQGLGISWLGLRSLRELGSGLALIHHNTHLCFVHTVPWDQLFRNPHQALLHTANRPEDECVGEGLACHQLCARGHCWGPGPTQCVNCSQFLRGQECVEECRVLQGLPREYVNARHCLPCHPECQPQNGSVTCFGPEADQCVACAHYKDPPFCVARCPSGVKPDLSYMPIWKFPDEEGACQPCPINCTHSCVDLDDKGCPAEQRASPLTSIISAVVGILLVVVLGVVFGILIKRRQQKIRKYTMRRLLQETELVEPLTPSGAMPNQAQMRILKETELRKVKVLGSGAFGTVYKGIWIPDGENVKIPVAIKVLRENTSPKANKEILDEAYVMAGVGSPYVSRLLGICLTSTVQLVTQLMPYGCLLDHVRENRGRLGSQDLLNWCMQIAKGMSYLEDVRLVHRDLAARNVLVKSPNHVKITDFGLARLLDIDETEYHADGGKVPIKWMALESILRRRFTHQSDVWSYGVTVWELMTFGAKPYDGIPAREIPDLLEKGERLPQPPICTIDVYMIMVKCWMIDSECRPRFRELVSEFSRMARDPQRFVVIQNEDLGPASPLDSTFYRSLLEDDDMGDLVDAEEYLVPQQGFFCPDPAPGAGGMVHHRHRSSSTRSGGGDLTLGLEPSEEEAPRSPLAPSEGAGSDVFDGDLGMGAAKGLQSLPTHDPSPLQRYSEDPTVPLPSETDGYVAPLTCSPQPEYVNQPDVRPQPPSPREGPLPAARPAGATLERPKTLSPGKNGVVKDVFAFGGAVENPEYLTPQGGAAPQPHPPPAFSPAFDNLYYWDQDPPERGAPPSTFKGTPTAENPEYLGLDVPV
For another assay, the system named is MDAMB435. Briefly: Inhibition of Cancer Cell Growth as Measured by Cell Number. It counts as cell-based, Human. The conditions noted are these: Homo sapiens, MDA-MB-435; 48 hours exposure, Sulforhodamine B. The protocol: (§1) Inhibition of Cancer Cell Growth as Measured bv Cell Number
(§2) Human tumor cell lines were plated in 96-well plates (250 µl/well, 1-6 x 10^4 cells/ml) in RPMI 1640 medium, containing 5% FBS (Fetal Bovine Serum). […] After 48 hours exposure to test compounds, cells were fixed with trichloroacetic acid, and stained with Sulforhodamine B. After washing with trichloroacetic acid, bound dye was solubilized in 10 mM Tris base and optical density was determined using plate reader. Under conditions of the assay the optical density is proportional to the number of cells in the well. […] The test procedure is described in details by Philip Skehan et. al, J.Natl. Canc. Inst., 82, 1107-1112 (1990). […] Information about some of the cell lines used in these test procedures is available from the American Type Tissue Collection: Cell Lines and Hybridomas, 1994 Reference Guide, 8th Edition.

The subject of a further assay is SW620. The description is as above. The following applies: Homo sapiens, SW-620; 48 hours exposure, Sulforhodamine B. Format: cell-based, Human. As to the method: as §1, §2
Another assay concerns SKBR3. The description is as above. It counts as cell-based, Human. The following applies: Homo sapiens, SK-BR-3; 48 hours exposure, Sulforhodamine B. The protocol:
as §1, §2

The test system of the next assay is A431. The description is as above. Format: cell-based, Human. The following applies: Homo sapiens, A-431; 48 hours exposure, Sulforhodamine B. As to the method: as §1, §2
Assay [2] has as its target T1, epidermal growth factor receptor kinase (Homo sapiens, UniProt P00533).
T1 construct: containing the EGFR cDNA encoding amino acids 645 - 1186 preceded by Met-Ala-(His)6; made in house; host or cells: Sf9 insect cells, recombinant baculovirus vHcEGFR52
Briefly: Inhibition of Epidermal Growth Factor Receptor Kinase (EGF-R) using recombinant enzyme. The conditions noted are these: averages of the individual determinations. It counts as biochemical.
Protocol: Representative test compounds were evaluated for their ability to inhibit the phosphorylation of the tyrosine residue of a peptide substrate catalyzed by the enzyme epidermal growth factor receptor kinase. […] The enzyme used in this assay is the His-tagged cytoplasmic domain of EGFR. A recombinant baculovirus (vHcEGFR52) was constructed containing the EGFR cDNA encoding amino acids 645 - 1186 preceded by Met-Ala-(His)6. Sf9 cells in 100 mm plates were infected at an moi of 10 pfu/cell and cells were harvested 48 h post infection. A cytoplasmic extract was prepared using 1% Triton X-100 and applied to Ni-NTA column. After washing the column with 20 mM imidazole, HcEGFR was eluted with 250 mM imidazole (in 50 mM Na2HPO4, pH 8.0, 300 mM NaCl). Fractions collected were dialyzed against 10 mM HEPES, pH 7.0, 50 mM NaCl, 10% glycerol, 1ug/mL antipain and leupeptin and 0.1 mM Pefabloc SC. The protein was frozen in dry ice/methanol and stored -70°C.
Test compounds were made into 10 mg/mL stock solutions in 100% dimethylsulfoxide (DMSO). Prior to experiment, stock solutions were diluted to 500 uM with 100% DMSO and then serially diluted to the desired concentration with HEPES buffer (30 mM HEPES pH 7.4).
For the enzyme reaction, 10 µL of each inhibitor (at various concentrations) were added to each well of a 96-well plate. To this was added 3 µL of enzyme (1:10 dilution in 10mM HEPES, pH 7.4 for final conc. of 1:120). This was allowed to sit for 10 min on ice and was followed by the addition of 5 µl peptide (80 µM final conc.), 10 µl of 4X Buffer (Table A), 0.25 µL ^33P-ATP and 12 µL H2O. The reaction was allowed to run for 90 min at room temperature and was followed by spotting the entire volume on to precut P81 filter papers. The filter discs were washed 2X with 0.5% phosphoric acid and radioactivity was measured using a liquid scintillation counter.
The % inhibition of the test compound was determined for at least three different concentrations and the IC50 value was evaluated from the dose response curve. […] CPM(control) is in units of counts per minute and was a number expressing the amount of radiolabled ATP (g-^33P) incorporated into the RR-SRC peptide substrate by the enzyme after 90 minutes at room temperature in the absence of test compound as measured by liquid scintillation counting. The CPM values were corrected for the background counts produced by ATP in the absence of the enzymatic reaction. The IC50 values in TABLE 1 are averages of the individual determinations.

The mark [3] stands for this setting: coupled MEK 1 / ERK2; separate entries = separate tests; read-out: Mek and Erk.

SMILES strings stand for the structures. ≈ marks a conversion by molar mass, not a printed value. Where two headings read alike, the source gives them in different places.

T1 sequence (P00533 669-1210): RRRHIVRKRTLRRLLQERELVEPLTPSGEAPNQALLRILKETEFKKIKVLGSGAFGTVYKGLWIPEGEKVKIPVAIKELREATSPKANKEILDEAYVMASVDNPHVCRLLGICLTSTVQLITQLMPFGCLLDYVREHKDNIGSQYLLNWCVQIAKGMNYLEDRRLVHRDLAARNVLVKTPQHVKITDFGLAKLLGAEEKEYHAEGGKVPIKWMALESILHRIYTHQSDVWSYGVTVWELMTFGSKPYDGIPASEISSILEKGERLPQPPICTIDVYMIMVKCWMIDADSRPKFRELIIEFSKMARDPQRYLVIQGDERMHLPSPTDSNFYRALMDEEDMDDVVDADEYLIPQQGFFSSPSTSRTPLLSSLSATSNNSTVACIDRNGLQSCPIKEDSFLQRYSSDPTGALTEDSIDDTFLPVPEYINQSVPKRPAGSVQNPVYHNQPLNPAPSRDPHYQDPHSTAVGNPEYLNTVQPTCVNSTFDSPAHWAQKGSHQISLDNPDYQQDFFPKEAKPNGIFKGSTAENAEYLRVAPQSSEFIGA
Sequence of Epithelial Cell Kinase (ECK) (P29317 24-976, species assumed): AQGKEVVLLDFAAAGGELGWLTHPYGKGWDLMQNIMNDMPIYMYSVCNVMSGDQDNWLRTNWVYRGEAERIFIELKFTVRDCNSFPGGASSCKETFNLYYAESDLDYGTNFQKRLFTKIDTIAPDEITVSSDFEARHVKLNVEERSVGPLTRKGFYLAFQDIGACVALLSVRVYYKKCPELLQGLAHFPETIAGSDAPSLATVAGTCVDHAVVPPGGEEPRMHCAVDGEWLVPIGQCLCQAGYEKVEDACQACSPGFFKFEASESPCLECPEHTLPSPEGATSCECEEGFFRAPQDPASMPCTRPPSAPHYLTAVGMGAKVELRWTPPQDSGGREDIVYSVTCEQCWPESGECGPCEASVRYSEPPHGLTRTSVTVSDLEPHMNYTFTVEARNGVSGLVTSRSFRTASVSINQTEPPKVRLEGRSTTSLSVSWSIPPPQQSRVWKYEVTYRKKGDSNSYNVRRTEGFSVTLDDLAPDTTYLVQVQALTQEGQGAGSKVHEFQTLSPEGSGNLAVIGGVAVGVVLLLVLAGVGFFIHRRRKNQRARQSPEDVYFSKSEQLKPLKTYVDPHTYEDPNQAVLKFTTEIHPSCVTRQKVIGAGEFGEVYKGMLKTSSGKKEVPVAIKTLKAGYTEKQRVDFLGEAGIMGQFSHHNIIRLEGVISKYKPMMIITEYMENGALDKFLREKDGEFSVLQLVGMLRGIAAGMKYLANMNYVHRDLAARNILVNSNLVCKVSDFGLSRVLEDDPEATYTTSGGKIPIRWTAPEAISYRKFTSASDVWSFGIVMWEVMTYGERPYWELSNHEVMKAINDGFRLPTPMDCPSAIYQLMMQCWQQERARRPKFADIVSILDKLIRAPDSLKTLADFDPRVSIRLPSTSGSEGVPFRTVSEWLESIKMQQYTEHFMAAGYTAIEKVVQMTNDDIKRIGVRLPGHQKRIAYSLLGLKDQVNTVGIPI

In the case of `COCOCC#CC(=O)Nc1ccc2ncc(C#N)c(Nc3cccc(Br)c3)c2c1` [Example 74, 4-Methoxymethoxy-but-2-ynoic acid [4-(3-bromo-phenylamino)-3-cyano-quinolin-6-yl]-amide], the IC50 is more than 43000 nM in assay [1]; more than 100000 nM on Mek and Erk (setting [3]). Besides, the inhibition at 2 µg/mL on erbB2 turned out to be 95%.
With `COCCN(CC#CC(=O)Nc1ccc2ncc(C#N)c(Nc3cccc(Br)c3)c2c1)CCOC` [Example 75, N-[4-[(3-Bromophenyl)amino]-3-cyano-6-quinolinyl]-4-(bis-(2-methoxyethyl)amino)-2-butynamide], the IC50 in the assay on MDAMB435 was 0.2 µg/mL (≈ 0.373 µM); in the assay with SW620, 0.5 µg/mL (≈ 0.932 µM); with SKBR3, 0.04 µg/mL (≈ 0.0746 µM); in the assay with A431 it was 0.1 µg/mL (≈ 0.186 µM); on Mek and Erk (setting [3]) it was 100000 nM; in assay [2], 0.4 nM.
As to `COCCN(C)CC#CC(=O)Nc1ccc2ncc(C#N)c(Nc3cccc(Br)c3)c2c1` [Example 76, N-[4-[(3-Bromophenyl)amino]-3-cyano-6-quinolinyl]-4-(N-methoxyethyl-N-methylamino)-2-butynamide], the IC50 is 0.284 µg/mL (≈ 0.577 µM) in the assay with MDAMB435; 0.239 µg/mL (≈ 0.485 µM) with SW620; 0.031 µg/mL (≈ 0.063 µM) in the assay with SKBR3; 0.05 µg/mL (≈ 0.102 µM) in the assay with A431; more than 100000 nM on Mek and Erk (setting [3]); 10 nM in assay [2]. Further, at erbB2, the inhibition at 2 µg/mL came to 96%.
`CN1CCC=C(C(=O)Nc2ccc3ncc(C#N)c(Nc4cccc(Br)c4)c3c2)C1` [Example 78, 1-Methyl-1,2,5,6-tetrahydro-pyridine-3-carboxylic acid [4-(3-bromo-phenylamino)-3-cyano-quinolin-6-yl]-amide]: the IC50 was 3.19 µg/mL (≈ 6.91 µM) in the assay with MDAMB435; more than 5 µg/mL in the assay with SW620; 1.5 µg/mL (≈ 3.23 µM) in the assay on SKBR3; 0.369 µg/mL (≈ 0.798 µM) with A431; more than 21300 nM in assay [1]; 40000 nM on Mek and Erk (setting [3]). Besides, the inhibition at 2 µg/mL at erbB2 worked out at 53%.
For the compound `COC[C@@H]1CCCN1CC#CC(=O)Nc1ccc2ncc(C#N)c(Nc3cccc(Br)c3)c2c1` [Example 79, 4-((2S)-2-Methoxymethylpyrrolidin-1-yl)but-2-ynoic Acid [4-(3-bromophenylamino)-3-cyanquinolin-6-yl]amide], the IC50 in the assay on MDAMB435 is 0.3 µg/mL (≈ 0.579 µM); in the assay on SW620, 0.1 µg/mL (≈ 0.193 µM); in the assay with SKBR3 it was 0.01 µg/mL (≈ 0.0193 µM); with A431, 0.04 µg/mL (≈ 0.0772 µM); in assay [2] it was 0.36 nM.
For the compound `CCOc1c(Nc2ccc3ncc(C#N)c(Nc4cccc(Br)c4)c3c2)c(=O)c1=O` [Example 85, 4-(3-Bromo-phenylamino)-6-(2-ethoxy-3,4-dioxo-cyclobut-1-enylamino)-quinoline-3-carbonitrile], the IC50 with MDAMB435 is 27.6 µg/mL (≈ 59.6 µM); with SW620, 18 µg/mL (≈ 38.8 µM); with SKBR3 it was 1.74 µg/mL (≈ 3.76 µM); in the assay on A431, 4.91 µg/mL (≈ 10.6 µM); at Mek and Erk (read-out: Mek and Erk; coupled MEK 1 / ERK2; separate entries = separate tests), 1800 nM. Moreover, on erbB2, the inhibition at 2 µg/mL worked out at 87%.
Consider `COc1cc2ncc(C#N)c(Nc3ccc(F)c(Cl)c3)c2cc1NC(=O)C=CC[n+]1csc(C)c1` [Example 95, 3-{3-[4-(3-Chloro-4-fluoro-phenylamino)-3-cyano-7-methoxy-quinolin-6-ylcarbamoyl]-allyl}-5-methyl-thiazol-3-ium bromide], for which the IC50 in assay [2] was determined as 5 nM.
For the compound `COc1cc2ncc(C#N)c(Nc3ccc(F)c(Cl)c3)c2cc1NC(=O)C=CC[n+]1cscc1C` [Example 96, 3-{3-[4-(3-Chloro-4-fluoro-phenylamino)-3-cyano-7-methoxy-quinolin-6-ylcarbamoyl]-allyl}-4-methyl-thiazol-3-ium bromide], the IC50 in assay [2] is 100 nM.
Same read-out and setting: the value for `C=CCN(CC=C)CC=CC(=O)Nc1cc2c(Nc3ccc(F)c(Cl)c3)c(C#N)cnc2cc1OC` [Example 103, 4-Diallylamino-but-2-enoic acid [4-(3-chloro-4-fluoro-phenylamino)-3cyano-7-methoxy-quinolin-6-yl]-amide] was 8 nM; that for `COc1cc2ncc(C#N)c(Nc3ccc(F)c(Cl)c3)c2cc1NC(=O)C=CCN(CCO)CCO` [Example 106, 4-[Bis-(2-hydroxy-ethyl)-amino]-but-2-enoic acid [4-(3-chloro-4-fluoro-phenylamino)-3-cyano-7-methoxy-quinolin-6-yl]-amide] was 13 nM.
Turning to `COc1cc2ncc(C#N)c(Nc3ccc(F)c(Cl)c3)c2cc1NC(=O)C=CCN1CCSCC1` [Example 107, 4-Thiomorpholin-4-yl-but-2-enoic acid [4-(3-chloro-4-fluoro-phenylamino)-3-cyano-7-methoxy-quinolin-6-yl]-amide], in assay [2], the IC50 was found to be 500 nM.
Same read-out and setting: the value for `COc1cc2ncc(C#N)c(Nc3ccc(F)c(Cl)c3)c2cc1NC(=O)C=CCN1CCN(CCO)CC1` [Example 108, 4-[4-(2-Hydroxy-ethyl)-piperazin-1-yl]-but-2-enoic acid [4-(3-chloro-4-fluoro-phenylamino)-3-cyano-7-methoxy-quinolin-6-yl]-amide] was 26 nM; that for `COc1cc2ncc(C#N)c(Nc3ccc(F)c(Cl)c3)c2cc1NC(=O)C=CCN1CCOCCOCCOCC1` [Example 109, 4-(1,4,7-Trioxa-10-aza-cyclododec-10-yl)-but-2-enoic acid [4-(3-chloro-4-fluoro-phenylamino)-3-cyano-7-methoxy-quinolin-6-yl]-amide] was 7 nM.
Same read-out and setting: the figure for `COc1cc2ncc(C#N)c(Nc3ccc(F)c(Cl)c3)c2cc1NC(=O)C=CCN(CC(C)O)CC(C)O` (stereo not shown) [Example 115, 4-[Bis-(2-hydroxy-propyl)-amino]-but-2-enoic acid [4-(3-chloro-4-fluoro-phenylamino)-3-cyano-7-methoxy-quinolin-6-yl]-amide] is 5 nM; for `COc1cc2ncc(C#N)c(Nc3ccc(F)c(Cl)c3)c2cc1NC(=O)C=CCN1CCC(O)(O)CC1` [Example 119, 4-(4,4-Dihydroxy-piperidin-1-yl)-but-2-enoic acid [4-(3-chloro-4-fluoro-phenylamino)-3-cyano-7-methoxy-quinolin-6-yl]-amide] it is 0.05 nM.

These data come from EP2253620B1, “SUBSTITUTED 3-CYANOQUINOLINES AS PROTEIN TYROSINE KINASES INHIBITORS” (Wyeth Holdings LLC, priority 1998, dated 2000).
